In the series the test system is mouse collagen-induced arthritis model. The series can be described thus: Mouse collagen-induced arthritis model. It counts as in vivo. The protocol:
On Days 0 and 21, […] of chicken cartilage-derived collagen (Nippon Meat Packers, Inc., Japan) in 0.1 mL of complete Freund's adjuvant (Difco Laboratories, Inc., U.S.) was subcutaneously injected to female DBA/1J Jms Slc mice (6- to 8-week-old) (Japan SLC, Japan) to immunize the mice.
Among the compounds of the present invention, a representative test compound (Example compound 1-N-6 or 2-N-100) was orally administered twice daily every day from Day 21 to Day 34 at a dose of 25 or 50 mg/kg (method A) or from Day 21 to Day 29 at a dose of 1, 3, 10, or 30 mg/kg (method B). The solution for administration was prepared by using 0.5% w/v Methylcellulose 400 Solution (Wako Pure Chemical Industries, Ltd.) as a solvent.
After administration of collagen on Day 21, the extent of development of arthritis in the mouse limbs were scored by visually observing each limb periodically according to the clinical scores outlined in Table X-1.
The clinical scores for all four limbs were summed up for each mouse and the mean±standard error (SE) of each treatment group was calculated. Evaluation was performed until the following day of the final administration.

Structures are written as SMILES.

For the compound `Cc1ccc(C(=O)N2CCC(Nc3cc(-c4cccc(C#N)c4)cc4ccncc34)CC2)cn1` [Example 2-N-100], where the note is “method B: oral twice daily Day 21 to Day 29, 1, 3, 10 or 30 mg/kg”, the toxicity entry is given as “did not exhibit toxicity”. Further, the “onset of arthritis (clinical scores)” value (method B: oral twice daily Day 21 to Day 29, 1, 3, 10 or 30 mg/kg, FIG. 2) is reported as “suppressed the onset of arthritis”.

With `N#Cc1cccc(-c2cc(N3CCNCC3)c3cnccc3c2)c1` [Example 1-N-6], the toxicity entry (method A: oral twice daily Day 21 to Day 34, 25 or 50 mg/kg) is reported as “did not exhibit toxicity”. Where the note is “method A: oral twice daily Day 21 to Day 34, 25 or 50 mg/kg, FIG. 1”, the “onset of arthritis (clinical scores)” value was “suppressed the onset of arthritis”.

The values above are taken from patent US8299055B2, “8-substituted isoquinoline derivative and the use thereof” (Asahi Kasei Pharma Corporation, priority 2008, dated 2012).
